Data reported in US20230266302A1, “SYNTHESIS AND USE OF N-BENZYL SULFONAMIDES” (THE UNIVERSITY OF TULSA, priority 2020, published 2023).

Experiments:
Type in all cases: cell-based
H293 (kidney cancer) = test: Cytotoxicity testing, CellTiter-Blue assay (FIG. 9); conditions: 100 μM, 24 hour compound incubation, result in words
Procedure: The cytotoxicity tests were carried out in the following manner. Living cells are known to convert resazurin to the fluorescent compound resorufin. Test systems which rely upon this reaction are commercially available. One such test is known at the Cell Titer Blue Cell Viability test assay from Promega. Cell cultures for each of the identified cancer lines were obtained from ATCC and maintained in Dulbecco's Modified Eagle Medium (DMEM) supplemented with 10% fetal bovine serum (FBS) and pen/strep. As known to those skilled in the art, DMEM typically includes the components identified below.
The test method provides for incubating the cell cultures at 37° C. Additionally, the cell cultures are kept under an atmosphere containing 5% CO2. After allowing for proliferation of the cells, the cells were distributed across a plurality of test cells containing from 100 μL DMEM plus 10% FBS and allowed to attach to the surface of the cells. Typically, the time for attachment will require about 12 hours to about 18 hours. Following attachment, the cells were treated with either a solvent control or the N-benzyl sulfonamide compound of interest dissolved in a suitable solvent such as but not limited to DMSO. Typically, about 18 hours to about 36 hours are required to determine the effect of the N-benzyl sulfonamide compound of interest on cell viability. Following treatment of the cells with the N-benzyl sulfonamide or control, the toxicity of the compound to the cells will be determined by addition of 10 μl of CellTiter-Blue reagent, i.e. resazurin. Typically, the resazurin is added between about 18 hours to about 36 hours after treating the cells with the N-benzyl sulfonamides or the control. The cells are allowed to consume and convert the resazurin to resorufin for about one to four hours. Subsequently, the fluorescence of […] is measured by excitation at 560 nm and recording the emission at 590 nm within an instrument configured to measure fluorescence intensity. Two commercially available systems are the BioTek Cytation 5 plate reader and the Promega Glomax Multi+detection system. […] The method for determining IC50 values is well known in the art and will not be discussed further. As known to those skilled in the art, IC50 is a quantitative measure that indicates how much of a particular inhibitory substance (e.g. drug) is needed to inhibit, in vitro, a given biological process or biological component by 50%. Therefore, each N-benzyl sulfonamide will be tested over a range of concentrations. Typically, the concentration ranges will be: 6.25 μM, 12.5 μM, 25 μM, 50 μM, and 100 μM. The control in this method is normally dimethyl […] (DMSO) or other solvent suitable for dissolving the compounds to be tested. FIG. 8 depicts the % cell viability for the indicated compounds depicted in FIG. 7.
The Table of FIG. 9 provides the results of cytotoxicity testing a 100 μM concentration of compounds 2, 5-9, 11-12, 14, 16, 18-22 of FIG. 7 against the indicated cancer cell lines using CellTiter-Blue assay with 24 hour compound incubation time. FIG. 9 reflects the percent reduction in cell viability resulting from the treatment of the indicated cancer cell lines with the indicated compounds. As indicated by the boxed values in FIG. 9, compounds 2, 5, and 6 would be considered effective against H293. […] The Table of FIG. 10 provides a comparison of the IC50 values of select compounds from FIG. 7 to the IC50 values of two known anti-cancer sulfonamides, ABT-751 and Indisulam. As indicated by FIG. 10, the identified compounds performed remarkably better than the known anti-cancer agents. Thus, the identified compounds are expected to have greater anti-cancer potency.

MCF7 (breast cancer) = test: ATP level assay (CellTiter-Glo), percent of control; conditions: two hour incubation; for activity at 100 µM: Homo sapiens, MCF7, 2 h, compound alone, control DMSO, read-out: POC (percent of control) MCF7
PC3 (prostate cancer) = test: as above; conditions: two hour incubation; for activity at 100 µM: 2 h, compound alone, control DMSO, read-out: POC (percent of control) PC3
[1] = compound 100 uM + 2DG (about 10-20 mM)
[2] = compound 100 uM + rotenone (approximately 1.25 μM)

Row | SMILES | percent reduction in cell viability, H293 (H293 (kidney cancer)) | activity at 100 µM (MCF7 (breast cancer)) [%] | POC (percent of control) MCF7 (MCF7 (breast cancer); [1]) | POC (percent of control) MCF7 (MCF7 (breast cancer); [2]) | activity at 100 µM (PC3 (prostate cancer)) [%] | POC (percent of control) PC3 (PC3 (prostate cancer); [1]) | POC (percent of control) PC3 (PC3 (prostate cancer); [2])
1 | O=S(=O)(NCc1c[nH]c2ccccc12)c1ccc(Cl)cc1 [Compound 2, N-[(1H-indol-3-yl)methyl]-4-chlorobenzenesulfonamide] | effective | 70.1 | 25.1% of control | 56.9% of control | 30.9 | 16.7% of control | 36.6% of control
2 | Cc1ccc(S(=O)(=O)NCc2c[nH]c3cccc(Br)c23)cc1 [Compound 5, N-[(4-bromo-1H-indol-3-yl)methyl]-4-methylbenzenesulfonamide] | effective | 86.4 | 18.7% of control | 55.6% of control | 68.3 | 4.8% of control | 18.3% of control
3 | Cc1cccc2c(CNS(=O)(=O)c3ccccc3)c[nH]c12 [Compound 6, N-[(7-methyl-1H-indol-3-yl)methyl]benzenesulfonamide] | effective | 72 | 41% of control | 63.4% of control | 38.3 | 35.9% of control | 54.3% of control
